The values below come from US20260028352A1, “MACROCYCLIC IMIDAZO [1,2-B] PYRIDAZINE DERIVATIVE, PREPARATION METHOD THEREFOR, AND USE THEREOF” (SUZHOU LANGRUI BIOPHARMACEUTICAL CO., LTD., priority 2022, published 2026).

Experiment [1] concerns Ba/F3-TPM3-NTRK1-G667C cells. The experiment is described as follows: Growth inhibition of Ba/F3-TPM3-NTRK1-G667C cells (Cell Titer-Glo). The class given is cell-based. The following applies: 72 hours, CTG; read-out: inhibitory activity IC50 Ba/F3-TPM3-NTRK1-G667C. In a few lines: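 Ba/F3 cells were exposed for 72 hours to serially DMSO-diluted compound at a top final concentration of 10 μM. Viability was read by Cell Titer-Glo luminescence after the plate equilibrated 30 min at room temperature and was then shaken 1 hour in the dark at room temperature.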

The next experiment has as its target TRKA^WT kinase (Homo sapiens (Human), UniProt P04629). The experiment is described as follows: Inhibitory activity against TRKA WT kinase (Caliper mobility shift). The experiment is classed as biochemical. The following applies: in vitro kinase assay. The procedure: (§1) Kinase Assay Process: 1× Kinase buffer was prepared. […] The compounds were serially diluted into 10 concentrations ([…], 0.15, and 0.05 nM) using a Precision 3-fold dilution method. By using the Echo550 liquid handler, 250 nL of the 100-fold final concentration compound was transferred to an OptiPlate-384F plate. a 2.5× final concentration kinase solution was prepared using 1× Kinase buffer. 10 μL of the 2.5× final concentration kinase solution was added to the compound wells and the positive control wells, and 10 μL of 1× Kinase buffer was added to the negative control wells. The plate was centrifuged at 1000 rpm for 30 seconds, vortexed for mixing, and then incubated at room temperature for 10 minutes. A mixture of 5/3× final concentration of ATP and Kinase Substrate 22 was prepared using 1× Kinase buffer. 15 μL of the mixture of the 5/3× final concentration ATP and the substrate was added to initiate the reaction, the 384-well plate was centrifuged at 1000 rpm for 30 seconds, vortexed for mixing, and incubated at room temperature for the required time. 30 μL of the termination solution was added to stop the kinase reaction, the plate was centrifuged at 1000 rpm for 30 seconds, and vortexed for mixing. The conversion rate was measured using the Caliper EZ Reader.
(§2) Data Analysis: the inhibition rate was calculated as follows:
(§3) % Inhibition=(Conversion %_max−conversion %_sample)÷(Conversion %_max−conversion %_min)×100
(§4) Conversion %_sample is the conversion rate reading for the sample; Conversion %_min is the average value of the negative control wells, representing the conversion rate for wells without enzyme activity: Conversion %_max is the average value of the positive control wells, representing the conversion rate for wells without compound inhibition. A dose-response curve was fitted using the log concentration of the compound as the X-axis and the percentage inhibition as the Y-axis. The log(inhibitor) vs. response-variable slope of the GraphPad Prism 5 software was used to fit the dose-response curve, and the IC50 value for each compound was obtained. The calculation formula is:
(§5) Y=Bottom+(Top−Bottom)/(1+10^((Log IC50−X)*HillSlope)).
(§6) wherein X represents the concentration of the compound to be tested; Y represents the inhibition rate at the concentration X: Top refers to the maximum response: Bottom refers to the baseline response; HillSlope refers to the slope of the curve (i.e., the gradient).

A further experiment addresses TRKA^F589L kinase (Homo sapiens (Human), UniProt P04629, F589L). The experiment is described as follows: Inhibitory activity against TRKA(F589L) kinase (Caliper mobility shift). The experiment is classed as biochemical. The following applies: in vitro kinase assay. The procedure:
as §1, §2, §3, §4, §5, §6

Experiment [2] relates to Ba/F3-TPM3-NTRK1-WT cells. The experiment is described as follows: Growth inhibition of Ba/F3-TPM3-NTRK1-WT cells (Cell Titer-Glo). The experiment is classed as cell-based. The following applies: 72 hours, CTG; read-out: inhibitory activity IC50 Ba/F3-TPM3-NTRK1-WT. How it is done:
(§7) Then the solutions were subjected to a gradient dilution with DMSO: a clean, sterile V-bottom 96-well microplate was placed in the biological safety cabinet. First, 4 μL of DMSO was added to well B2 and 10 μL of DMSO was added to wells B3-B11 respectively; Next, 6 μL of the 10 mM solution was added to well B2. The microplate was pipetted up and down 10 times for mixing. […] Mixing was performed by pipetting up and down 10 times. The solution was diluted in order until well B10. only DMSO was added to well B11 (no compound).
(§8) 6× Compound Solution Preparation (6-fold dilution, × represents dilution factor): (Initial final concentration: 10 μM), a clean, sterile V-bottom 96-well microplate was placed in the biological safety cabinet. 99 μL of cell culture medium was added to each well from B2 to G11. By using a 12-channel pipettor, 1 μL of the compound solution prepared in the previous step was added into the corresponding wells. The solutions were pipetted up and down 10 times to mix the solutions. The highest concentration of compound in this step was 60 μM.
(§9) Treatment of Cells: the above-prepared cell culture plate was taken out of the incubator. 20 μL of compound solution from each well was added to the corresponding cell culture wells. The lowest pipetting speed was used and touching the bottom of the plate was avoided. The culture plate was gently shaked to mix the compound solution, then the plate was returned to the incubator for further culture for 72 hours.
(§10) The highest treatment concentration of the compound was 10 μM. After 72 hours of treatment, the Cell Titer-Glo (CTG) assay was performed. First, the cell culture plate was removed from the CO2 incubator and allowed to stand at room temperature for 30 minutes to ensure uniform temperature of the plate. The pre-prepared Cell Titer-Glo reagent (following the manufacturer's instructions) was taken and allowed to stand at room temperature to thaw. 60 μL of Cell Titer-Glo reagent was added to each well containing cells. The cells were incubated on a horizontal shaker in a dark place at 225 rpm for 1 hour at room temperature. Then, a Tecan Spark microplate reader was used to read the plate using chemiluminescence according to the manufacturer's instructions.
On the technique in general: ATP-based viability assays read luminescence as a measure of living cells.

The subject of experiment [3] is Ba/F3-TPM3-NTRK1-G595R cells. The experiment is described as follows: Growth inhibition of Ba/F3-TPM3-NTRK1-G595R cells (Cell Titer-Glo). The following applies: 72 hours, CTG; read-out: inhibitory activity IC50 Ba/F3-TPM3-NTRK1-G595R. The experiment is classed as cell-based. How it is done:
as §7, §8, §9, §10

TRKA^WT kinase, sequence (P04629 33-796): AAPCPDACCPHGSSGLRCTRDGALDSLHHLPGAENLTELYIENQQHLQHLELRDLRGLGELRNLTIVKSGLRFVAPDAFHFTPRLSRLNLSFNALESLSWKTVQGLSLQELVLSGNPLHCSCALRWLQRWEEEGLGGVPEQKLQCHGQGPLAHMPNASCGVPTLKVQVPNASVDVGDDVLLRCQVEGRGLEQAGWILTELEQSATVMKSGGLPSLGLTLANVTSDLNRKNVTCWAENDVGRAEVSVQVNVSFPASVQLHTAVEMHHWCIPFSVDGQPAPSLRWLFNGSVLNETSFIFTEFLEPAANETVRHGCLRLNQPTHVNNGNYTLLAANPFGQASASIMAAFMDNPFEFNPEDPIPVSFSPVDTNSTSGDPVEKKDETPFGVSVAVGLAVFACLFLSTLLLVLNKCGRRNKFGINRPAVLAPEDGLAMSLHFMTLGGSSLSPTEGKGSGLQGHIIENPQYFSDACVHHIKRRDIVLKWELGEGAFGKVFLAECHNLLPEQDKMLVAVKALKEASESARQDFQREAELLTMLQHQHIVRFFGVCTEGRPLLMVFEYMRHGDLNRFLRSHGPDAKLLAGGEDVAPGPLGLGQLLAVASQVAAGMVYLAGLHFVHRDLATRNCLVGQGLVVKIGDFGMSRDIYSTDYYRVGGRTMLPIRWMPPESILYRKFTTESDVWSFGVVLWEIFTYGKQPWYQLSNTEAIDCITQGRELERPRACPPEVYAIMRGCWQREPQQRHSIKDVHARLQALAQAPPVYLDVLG
TRKA^F589L kinase, sequence (P04629 33-796 F589L): as the sequence (P04629 33-796) above, with F557L counted along it

As for `C[C@H]1Cc2ccnc(n2)-c2cnc3ccc(nn23)N2CCC[C@@H]2c2cc(F)cnc2O1` [Example I-95, (32R,6S,E)-4-fluoro-6-methyl-5-oxa-2(3,6)-imidazo[1,2-b]pyridazina-1(2,4)-pyrimidina-4(3,2)-pyridina-3(1,2)-pyrrolidinacycloheptaphane], the results for the IC50 (in experiment [1]; at TRKA^WT kinase; on TRKA^F589L kinase) were under 100 nM, under 3 nM and under 5 nM, respectively.
The matching figures for `C[C@H]1Nc2ccc3ncc(n3n2)-c2cc(ncn2)COc2ccccc21` [Example I-26, (R)-(E)-6-methyl-4-oxa-7-aza-1(3,6)-imidazo[1,2-b]pyridazina-2(4,6)-pyrimidina-5(1,2)-benzenacycloheptaphane]: under 100 nM, under 3 nM and under 5 nM.
For `C[C@H]1Nc2ccc3ncc(n3n2)-c2cc(ccn2)COc2ccccc21` [Example I-18, (R)-(E)-6-methyl-4-oxa-7-aza-1(3,6)-imidazo[1,2-b]pyridazine-2(2,4)-pyridina-5(1,2)-benzenacycloheptaphane] the same measures were under 100 nM, under 3 nM and under 5 nM.
Turning to `C[C@H]1Nc2ccc3ncc(n3n2)-c2cc(ccn2)CCOc2ccccc21` [Example I-28, (4R,E)-4-methyl-6-oxa-3-aza-2(3,6)-imidazo[1,2-b]pyridazina-1(2,4)-pyridina-5(1,2)-benzenacyclooctaphane], the IC50 was under 100 nM in experiment [1], under 3 nM at TRKA^WT kinase and under 5 nM at TRKA^F589L kinase.
Turning to `C[C@H]1Nc2ccc3ncc(n3n2)-c2cc(ccn2)COc2ccc(F)cc21` [Example I-14, (R)-(E)-5^4-fluoro-6-methyl-4-oxa-7-aza-1(3,6)-imidazo[1,2-b]pyridazina-2(2,4)-pyridina-5(1,2)-benzenacycloheptaphane], the IC50 was under 100 nM in experiment [1], under 3 nM at TRKA^WT kinase and under 5 nM on TRKA^F589L kinase.
In the case of `Fc1ccc2c(c1)[C@H]1CCCN1c1ccc3ncc(n3n1)-c1cc(ncn1)CCO2` [Example I-69, (3^2R,E)-4^5-fluoro-5-oxa-2(3,6)-imidazo[1,2-b]pyridazina-1(4,6)-pyrimidina-3(1,2)-pyrrolidina-4(1,2)-benzenacycloheptaphane], the IC50 in experiment [1] is under 100 nM; on TRKA^WT kinase, under 3 nM; on TRKA^F589L kinase, under 5 nM.
For `C[C@H]1Nc2ccc3ncc(n3n2)-c2cncc(c2)COc2ccc(F)cc21` [Example I-22, (R)-(E)-5^4-fluoro-6-methyl-4-oxa-7-aza-1(3,6)-imidazo[1,2-b]pyridazina-2(3,5)-pyridina-5(1,2)-benzenacycloheptaphane] the same measures were under 100 nM, under 3 nM and under 5 nM.
For “(R)-(E)-4-methyl-6-oxa-3-aza-2(3,6)-imidazo[1,2-b]pyridazina-1(4,6)-pyrimidina-5(1,2)-benzenacyclooctaphane [Example I-32]” the same measures were under 100 nM, under 3 nM and under 5 nM.
With `Fc1ccc2c(c1)[C@H]1C[C@H](F)CN1c1ccc3ncc(n3n1)-c1cc(ccn1)CCO2` [Example I-54, (3^2R,3^4S,E)-3^4,4^5-difluoro-5-oxa-2(3,6)-imidazo[1,2-b]pyridazina-1(2,4)-pyridina-3(1,2)-pyrrolidina-4(1,2)-benzenacycloheptaphane], the IC50 in experiment [2] is 0.18 nM; in experiment [1] it was 2.1 nM; in experiment [3], 0.4 nM.
In the case of `C[C@H]1Nc2ccc3ncc(n3n2)-c2cc(cnn2)CCOc2ncc(F)cc21` [Example I-89, (4R,E)-5^5-fluoro-4-methyl-6-oxa-3-aza-2(3,6)-imidazo[1,2-b]pyridazina-1(3,5)-pyridazina-5(3,2)-pyridinacyclooctaphane], the IC50 in experiment [1] was under 100 nM; at TRKA^WT kinase, under 3 nM; on TRKA^F589L kinase it was under 5 nM.
Regarding `C[C@@H]1Cc2ccnc(c2)-c2cnc3ccc(nn23)N2C[C@@H](F)C[C@@H]2c2cc(F)ccc2O1` [Example I-39, (3^2R,3^4S,6R,E)-3^4,4^5-difluoro-6-methyl-5-oxa-2(3,6)-imidazo[1,2-b]pyridazina-1(2,4)-pyridina-3(1,2)-pyrrolidina-4(1,2)-benzenacycloheptaphane], the IC50 in experiment [2] was 0.01 nM; in experiment [1], 0.3 nM; in experiment [3], 0.1 nM.
Turning to `C[C@H]1Cc2ccnc(n2)-c2cnc3ccc(nn23)N2C[C@@H](F)C[C@@H]2c2cc(F)cnc2O1` [Example I-96, (3^2R,3^4S,6S,E)-3^4,4^5-difluoro-6-methyl-5-oxa-2(3,6)-imidazo[1,2-b]pyridazina-1(2,4)-pyrimidina-4(3,2)-pyridina-3(1,2)-pyrrolidinacycloheptaphane], the results for the IC50 in experiment [2], in experiment [1] and in experiment [3] were 0.11 nM, 3.7 nM and 1.4 nM, respectively.
The matching figures for `Fc1cnc2c(c1)[C@H]1C[C@H](F)CN1c1ccc3ncc(n3n1)-c1nccc(n1)CO2` [Example I-64, (14bR,16S,E)-13,16-difluoro-14b,15,16,17-tetrahydro-9H-4,8-(azeno)-1,19-ethenoimidazo[1,5-h]pyrido[2,3-b]pyrrolo[2,1-d][1]oxa[5,7,8,11]tetraazacyclopentadecine]: 0.3 nM, 8.5 nM and 0.9 nM.
The matching figures for `C[C@@H]1Cc2ccnc(c2)-c2cnc3ccc(nn23)N2C[C@@H](F)C[C@@H]2c2cc(F)cnc2O1` [Example I-40, (3^2R,3^4S,6R,E)-3^4,4^5-difluoro-6-methyl-5-oxa-2(3,6)-imidazo[1,2-b]pyridazina-1(2,4),4(3,2)-dipyridina-3(1,2)-pyrrolidinacycloheptaphane]: 0.01 nM, 0.1 nM and 0.1 nM.
For `CC1Nc2ccc3ncc(n3n2)-c2cc(ncn2)CCOc2ccccc21` (stereo not drawn) [Example I-11, […]] the same measures were 2.5 nM, 419 nM and 419 nM.
`CC1Nc2ccc3ncc(n3n2)-c2cc(ccn2)CCOc2ccccc21` (stereo not drawn) [Example I-9, (E)-4-methyl-6-oxa-3-aza-2(3,6)-imidazo[1,2-b]pyridazina-1(2,4)-pyridina-5(1,2)-benzenacyclooctaphane]: the IC50 in experiment [2] is 11 nM; in experiment [1], 308 nM; in experiment [3], 297 nM.
